The structures appear in SMILES notation. Some results are limits rather than exact numbers.

The source of these data is patent US6114371A, “3-(cyclohexanoheteroarylidenyl)-2-indolinone protein tyrosine kinase inhibitors” (Sugen, Inc., priority 1998, dated 2000).

In assay [1] the target is Myc-GyrB-FGFR fusion protein. As to the kind of experiment: Assay measuring the kinase activity of the FGF receptor (Myc-GyrB-FGFR fusion protein). In kind it is biochemical. The following applies: Table 5; 7 μM ATP. As to the method: The following protocol describes the reagents and procedures used to analyze protein tyrosine kinase activity of the Myc-GyrB-FGFR fusion protein.
5. Add 15 μg COS/FGFR cell lysate Myc-GyrB-FGFR sources per well in HNTG for a final volume of 100 μL per well. Incubate while shaking on a micro-liter plate shaker at room temperature for 2 hours.
9. At this point diluted Compounds/Extracts are added to the ELISA plate. Transfer 10 μL of diluted test and control wells from the polypropylene plate wells to the corresponding ELISA plate wells. Incubate while shaking on a micro-liter plate shaker at room temperature for 20 minutes.
10. Add 10 μL of 70 μM ATP diluted in kinase buffer to positive control and test wells (Final ATP concentration is 7 μM/well.) Add 10 μL of 1×kinase buffer to negative control wells. Incubate while shaking on a micro-liter plate shaker at room temperature for 15 min.
22. Read assay on Dynatech MR7000 ELISA Plate Reader.
(§1) The IC50 values were measured for several of the compounds of the invention.

Assay [2] concerns the target EGFr (Homo sapiens, UniProt P00533). As to the kind of experiment: EGF-induced BrdU incorporation assay. In kind it is cell-based. Particulars: Table 8. On the technique in general: Incorporation of labelled thymidine or its analogues reports DNA synthesis.
Assay [3] has as its system FGFr. In words: FGF-induced BrdU incorporation assay. In kind it is cell-based. Particulars: Table 8.
Assay [4] deals with HUV-EC-C cells. In words: HUV-EC-C assay, aFGF (3H-thymidine incorporation). Particulars: Homo sapiens, Table 9; aFGF (ECGF)-stimulated HUV-EC-C, 3H-thymidine; read-out: aFGF IC50. The format is cell-based, human. As for the experimental part:
The following protocol may also be used to measure a compound's activity against PDGF-R, FGF-R, VEGF, aFGF or Flk-1/KDR, all of which are naturally expressed by HUV-EC cells.
1. […] After cells have detached from the flask, add an equal volume of assay medium and transfer to a 50 mL sterile centrifuge tube (Fisher Scientific; catalogue no. 05-539-6).
1. Make up two-fold drug titrations in separate 96-well plates, generally 50 μM on down to 0 μM. Use the same assay medium as mentioned in day 0, step 2 above. Titrations are made by adding 90 μl/well of drug at 200 μM (4×the final well concentration) to the top well of a particular plate column. Since the stock drug concentration is usually 20 mM in DMSO, the 200 μM drug concentration contains 2% DMSO.
Therefore, diluent made up to 2% DMSO in assay medium (F12K+0.5% fetal bovine serum) is used as diluent for the drug titrations in order to dilute the drug but keep the DMSO concentration constant. Add this diluent to the remaining wells in the column at 60 μl/well. Take 60 μl from the 120 μl of 200 μM drug dilution in the top well of the column and mix with the 60 μl in the second well of the column. Take 60 μl from this well and mix with the 60 μl in the third well of the column, and so on until two-fold titrations are completed. When the next-to-the-last well is mixed, take 60 μl of the 120 μl in this well and discard it. Leave the last well with 60 μl of DMSO/media diluent as a non-drug-containing control. Make 9 columns of titrated drug, enough for triplicate wells each for 1) VEGF (obtained from Pepro Tech Inc., catalogue no. 100-200, 2) endothelial cell growth factor (ECGF) (also known as acidic fibroblast growth factor, or aFGF) (obtained from Boehringer Mannheim Biochemica, catalogue no. 1439 600); or, 3) human PDGF B/B (1276-956, Boehringer Mannheim, Germany) and assay media control. ECGF comes as a preparation with sodium heparin.
2. Transfer 50 μl/well of the drug dilutions to the 96-well assay plates containing the 0.8-1.0×10^4 cells/100 μl/well of the HUV-EC-C cells from day 0 and incubate ~2 h at 37° C., 5% CO2.
3. In triplicate, add 50 μl/well of […] VEGF, 20 ng/mL ECGF, or media control to each drug condition. As with the drugs, the growth factor concentrations are 4×the desired final concentration. Use the assay media from day 0 step 2 to make the concentrations of growth factors. Incubate approximately 24 hours at 37° C., 5% CO2. Each well will have 50 μl drug dilution, 50 μl growth factor or media, and 100 ul cells, =200 ul/well total. Thus the 4×concentrations of drugs and growth factors become 1× once everything has been added to the wells.
1. Add ^3 H-thymidine (Amersham; catalogue no. TRK-686) at 1 μCi/well (10 μl/well of 100 μCi/mL solution made up in RPMI media+10% heat-inactivated fetal bovine serum) and incubate ~24 h at 37° C., 5% CO2. RPMI is obtained from Gibco BRL, catalogue no. 11875-051.
1. Thaw plates and harvest with a 96-well plate harvester (Tomtec Harvester 96®) onto filter mats (Wallac; catalogue no. 1205-401); read counts on a Wallac Betaplate™ liquid scintillation counter.
as §1

In assay [5] the target is T1, PDGFr (Homo sapiens, UniProt P09619). As to the kind of experiment: PDGF-induced BrdU incorporation assay. In kind it is cell-based. Details: expressed in transfected cells; host or cells: 3T3 cell line.
T1 sequence (P09619 33-1106): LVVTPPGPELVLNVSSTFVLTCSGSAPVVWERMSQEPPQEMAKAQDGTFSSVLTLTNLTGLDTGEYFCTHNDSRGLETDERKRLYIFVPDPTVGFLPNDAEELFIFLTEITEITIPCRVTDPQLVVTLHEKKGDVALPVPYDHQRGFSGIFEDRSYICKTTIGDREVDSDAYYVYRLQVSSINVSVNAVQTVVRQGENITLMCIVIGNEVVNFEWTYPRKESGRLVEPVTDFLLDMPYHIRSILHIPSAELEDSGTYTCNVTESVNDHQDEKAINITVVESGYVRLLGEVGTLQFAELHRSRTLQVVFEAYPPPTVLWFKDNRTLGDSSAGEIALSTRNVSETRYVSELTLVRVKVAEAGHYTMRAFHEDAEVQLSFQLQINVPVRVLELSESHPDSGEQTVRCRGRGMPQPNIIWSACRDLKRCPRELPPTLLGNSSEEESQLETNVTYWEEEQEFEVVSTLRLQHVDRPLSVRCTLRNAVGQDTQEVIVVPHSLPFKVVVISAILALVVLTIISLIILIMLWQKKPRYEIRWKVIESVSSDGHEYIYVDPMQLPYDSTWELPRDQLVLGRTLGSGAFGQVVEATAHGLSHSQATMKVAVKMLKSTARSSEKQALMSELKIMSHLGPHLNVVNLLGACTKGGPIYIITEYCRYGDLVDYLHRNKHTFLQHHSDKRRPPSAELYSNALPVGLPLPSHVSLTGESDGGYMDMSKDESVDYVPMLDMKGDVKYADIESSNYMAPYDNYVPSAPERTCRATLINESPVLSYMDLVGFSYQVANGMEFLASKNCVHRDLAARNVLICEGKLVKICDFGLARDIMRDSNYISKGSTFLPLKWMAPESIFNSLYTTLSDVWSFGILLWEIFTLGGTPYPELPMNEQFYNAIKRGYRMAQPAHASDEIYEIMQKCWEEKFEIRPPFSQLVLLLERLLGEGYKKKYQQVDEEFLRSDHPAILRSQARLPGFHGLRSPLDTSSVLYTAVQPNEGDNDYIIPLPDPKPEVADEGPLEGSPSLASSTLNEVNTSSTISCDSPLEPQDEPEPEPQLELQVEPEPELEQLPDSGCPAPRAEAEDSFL
Method: (8) 3T3 cell line genetically engineered to express human PDGF-R.
Cells were seeded at 8000 cells/well in DMEM, 10% CS, 2 mM Gln in a 96 well plate. Cells were incubated overnight at 37° C. in 5% CO2.
The negative control wells received serum free DMEM with 0.1% BSA only; the positive control cells received the ligand (PDGF) but no test compound.
The absorbance of the samples were measured at 410 nm (in "dual wavelength" mode with a filter reading at 490 nm, as a reference wavelength) on a Dynatech ELISA plate reader.
Assay [6] deals with T1, PDGFr. In words: PDGF-R ELISA. Details: cells (U1242, obtained from Joseph Schlessinger, NYU); endogenous in cells; host or cells: U1242. The format is cell-based. Background: ELISA stands for enzyme-linked immunosorbent assay.
Method: All cell culture media, glutamine, and fetal bovine serum can be purchased from Gibco Life Technologies (Grand Island, N.Y.) unless otherwise specified. […] All cell lines are routinely subcultured twice a week and are negative for mycoplasma as determined by the Mycotect method (Gibco).
For ELISA assays, cells (U1242, obtained from Joseph Schlessinger, NYU) are grown to 80-90% confluency in growth medium (MEM with 10% FBS, NEAA, 1 mM NaPyr and 2 mM GLN) and seeded in 96-well tissue culture plates in 0.5% serum at 25,000 to 30,000 cells per well. After overnight incubation in 0.5% serum-containing medium, cells are changed to serum-free medium and treated with test compound for 2 hr in a 5% CO2, 37° C. incubator. […] Lysates are incubated with shaking for 1 hour at room temperature. The plates are washed with TBST four times and then incubated with polyclonal anti-phosphotyrosine antibody at room temperature for 30 minutes. Excess anti-phosphotyrosine antibody is removed by rinsing the plate with TBST four times. Goat anti-rabbit IgG antibody is added to the ELISA plate for 30 min at room temperature followed by rinsing with TBST four more times. […] Absorbance at 410 nm with a reference wavelength of 630 nm is recorded about 15 to 30 min after ABTS addition.
Assay [7] concerns the target T2, FLK-1 receptor (Mus musculus, UniProt P35918).
T2 construct: expressed in transfected cells; host or cells: NIH3T3 C7#3 cells
As to the kind of experiment: FLK-1 ELISA (kinase activity of the FLK-1 receptor in engineered cells). In kind it is cell-based. The following applies: Table 3; VEGF-stimulated NIH3T3 C7#3 cells; read-out: FLK-1 IC50.

For assay [8], the target named is T3, src protein kinase (Gallus gallus, UniProt P00523).
T3 construct: made in house; host or cells: Schizosaccharomyces pombe (yeast transformed with src, lysate)
In words: Biochemical src assay - ELISA. Particulars: Table 6; 5 μM ATP, biotinylated peptide substrate. As for the experimental part:
This assay is used to determine src protein kinase activity measuring phosphorylation of a biotinylated peptide as the readout.
h. […] S. Pombe strain SP200 (h-s leul.32 ura4 ade210) is grown as described and transformations are pRSP expression plasmids are done by the lithium acetate method (Superti-Furga, supra). Cells are grown in the presence of 1 μM thiamine to repress expression from the nmtl promoter or in the absence of thiamine to induce expression.
2. Add 0.08 mL Kinase Reaction Mixture per well (containing 10 μL of 10×Kinase Buffer and 10 μM (final concentration) biotin-[…] per well diluted in water.
3. Add 10 μL of compound diluted in water containing 10% DMSO and pre-incubate for 15 minutes at room temperature.
4. Start kinase reaction by adding 10 μL/well of 0.05 mM ATP in water (5 μM ATP final).
as §1

Setting [9] is: Table 8, BrdU incorporation, 3.8 nM PDGF, read-out: PDGFr IC50.
The mark [10] stands for this setting: Table 4, ligand-stimulated U1242 cells, read-out: PDGF-R IC50.

T2 sequence (P35918 20-1345): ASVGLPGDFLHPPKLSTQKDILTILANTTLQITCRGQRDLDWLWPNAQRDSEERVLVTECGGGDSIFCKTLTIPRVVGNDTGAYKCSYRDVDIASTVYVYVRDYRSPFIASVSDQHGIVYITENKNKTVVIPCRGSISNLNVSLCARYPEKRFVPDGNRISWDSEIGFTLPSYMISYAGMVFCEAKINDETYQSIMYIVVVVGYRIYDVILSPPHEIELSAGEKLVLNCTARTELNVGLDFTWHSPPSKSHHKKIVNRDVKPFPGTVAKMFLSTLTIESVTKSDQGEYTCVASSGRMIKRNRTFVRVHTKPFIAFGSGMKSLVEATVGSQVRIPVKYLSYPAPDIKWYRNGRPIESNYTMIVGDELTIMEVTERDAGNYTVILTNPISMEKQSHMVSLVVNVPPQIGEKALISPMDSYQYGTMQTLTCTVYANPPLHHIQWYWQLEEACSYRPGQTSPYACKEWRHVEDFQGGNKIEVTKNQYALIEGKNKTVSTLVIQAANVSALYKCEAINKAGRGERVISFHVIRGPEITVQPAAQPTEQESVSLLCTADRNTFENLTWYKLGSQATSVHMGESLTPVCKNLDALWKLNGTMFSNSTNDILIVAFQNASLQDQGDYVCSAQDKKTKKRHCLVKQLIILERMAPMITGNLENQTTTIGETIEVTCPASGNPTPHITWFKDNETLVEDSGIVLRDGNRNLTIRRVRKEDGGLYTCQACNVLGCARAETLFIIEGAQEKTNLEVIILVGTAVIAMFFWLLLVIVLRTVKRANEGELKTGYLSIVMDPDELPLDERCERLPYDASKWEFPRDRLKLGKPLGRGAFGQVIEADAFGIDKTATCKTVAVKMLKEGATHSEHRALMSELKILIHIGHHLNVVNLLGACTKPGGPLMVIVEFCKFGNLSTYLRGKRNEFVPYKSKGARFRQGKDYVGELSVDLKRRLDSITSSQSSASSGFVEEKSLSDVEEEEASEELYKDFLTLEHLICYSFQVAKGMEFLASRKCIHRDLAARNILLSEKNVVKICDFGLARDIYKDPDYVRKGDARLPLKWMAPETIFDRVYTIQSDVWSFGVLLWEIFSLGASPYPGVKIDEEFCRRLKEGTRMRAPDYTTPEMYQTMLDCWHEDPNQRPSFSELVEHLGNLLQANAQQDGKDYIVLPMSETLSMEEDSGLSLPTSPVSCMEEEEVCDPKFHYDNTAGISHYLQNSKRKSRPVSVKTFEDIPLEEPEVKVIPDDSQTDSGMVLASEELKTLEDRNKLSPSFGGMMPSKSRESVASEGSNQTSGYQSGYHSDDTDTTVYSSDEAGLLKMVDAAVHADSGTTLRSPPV
Chain of EGFr (P00533 25-1210): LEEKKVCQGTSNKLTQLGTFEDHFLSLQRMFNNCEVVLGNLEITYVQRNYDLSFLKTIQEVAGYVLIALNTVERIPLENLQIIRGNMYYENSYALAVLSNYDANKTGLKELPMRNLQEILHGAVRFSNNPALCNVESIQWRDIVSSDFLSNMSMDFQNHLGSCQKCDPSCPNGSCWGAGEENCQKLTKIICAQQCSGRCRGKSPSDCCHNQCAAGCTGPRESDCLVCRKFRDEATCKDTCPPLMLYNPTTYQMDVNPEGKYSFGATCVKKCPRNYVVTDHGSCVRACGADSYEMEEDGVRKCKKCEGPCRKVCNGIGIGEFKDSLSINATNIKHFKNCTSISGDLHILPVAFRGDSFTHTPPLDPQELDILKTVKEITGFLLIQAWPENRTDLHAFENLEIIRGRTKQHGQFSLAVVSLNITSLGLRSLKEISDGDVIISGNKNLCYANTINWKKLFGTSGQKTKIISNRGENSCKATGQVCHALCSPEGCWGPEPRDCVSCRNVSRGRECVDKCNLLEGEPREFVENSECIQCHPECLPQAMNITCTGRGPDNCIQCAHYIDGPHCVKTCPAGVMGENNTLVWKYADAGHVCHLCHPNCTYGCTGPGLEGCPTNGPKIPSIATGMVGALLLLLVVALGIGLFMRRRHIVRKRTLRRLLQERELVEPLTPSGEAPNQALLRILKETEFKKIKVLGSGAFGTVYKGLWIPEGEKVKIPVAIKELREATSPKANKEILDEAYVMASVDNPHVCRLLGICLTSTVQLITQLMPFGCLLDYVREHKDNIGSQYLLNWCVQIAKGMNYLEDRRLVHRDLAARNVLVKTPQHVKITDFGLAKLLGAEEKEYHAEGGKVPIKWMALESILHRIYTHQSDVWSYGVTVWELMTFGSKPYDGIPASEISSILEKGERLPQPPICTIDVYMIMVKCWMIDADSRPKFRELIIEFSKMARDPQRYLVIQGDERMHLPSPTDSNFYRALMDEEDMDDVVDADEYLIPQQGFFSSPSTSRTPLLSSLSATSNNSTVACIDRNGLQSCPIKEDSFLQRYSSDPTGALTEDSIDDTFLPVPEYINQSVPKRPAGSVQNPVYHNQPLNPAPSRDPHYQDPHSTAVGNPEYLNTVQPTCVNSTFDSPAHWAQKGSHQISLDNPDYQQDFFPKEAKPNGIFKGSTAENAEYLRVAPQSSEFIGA

`COc1ccccc1-c1ccc2c(c1)NC(=O)C2=Cc1cc2c([nH]1)CCCC2` [6-(2-methoxyphenyl)-3-(4,5,6,7-tetrahydro-1H-indol-2-ylmethylene)-1,3-dihydro-indol-2-one]: the IC50 – broadly, the concentration needed to halve the response being measured – in assay [1] was above 100 µM; in assay [2], 34.1 µM; in assay [3], 43.6 µM; in assay [4], 14.6 µM; in assay [5] it was 1.06 µM; in assay [6], 12.3 µM.

With `COc1ccccc1-c1ccc2c(c1)NC(=O)C2=Cc1[nH]c2c(c1C)CCCC2` [6-(2-methoxyphenyl)-3-(3-methyl-4,5,6,7-tetrahydro-1H-indol-2-ylmethylene)-1,3-dihydro-indol-2-one], the IC50 in assay [1] was above 100 µM; in assay [2] it was above 50 µM; in assay [3], above 50 µM; in assay [4], above 12.5 µM; in assay [5] (setting [9]), above 50 µM; in assay [6] (setting [10]), 95.7 µM.

With `Cc1c(C=C2C(=O)Nc3cc(Br)ccc32)[nH]c2c1CCCC2` [6-bromo-3-(3-methyl-4,5,6,7-tetrahydro-1H-indol-2-ylmethylene)-1,3-dihydro-indol-2-one], the IC50 in assay [7] was 2.19 µM; in assay [1], above 20 µM; in assay [6] (setting [10]) it was 40 µM.

Consider `COc1cccc(-c2ccc3c(c2)NC(=O)C3=Cc2[nH]c3c(c2C)CCCC3)c1` [6-(3-methoxyphenyl)-3-(3-methyl-4,5,6,7-tetrahydro-1H-indol-2-ylmethylene)-1,3-dihydro-indol-2-one], for which the results for the IC50 in assay [7], in assay [1] and in assay [6] (setting [10]) were above 5 µM, above 20 µM and 5.83 µM, respectively.

As for `COc1cccc(-c2ccc3c(c2)NC(=O)C3=Cc2cc3c([nH]2)CCCC3)c1` [6-(3-methoxyphenyl)-3-(4,5,6,7-tetrahydro-1H-indol-2-ylmethylene)-1,3-dihydro-indol-2-one], the IC50 in assay [7] is above 20 µM; in assay [2], 31.8 µM; in assay [3], above 50 µM; in assay [4], above 50 µM; in assay [5] (setting [9]), above 50 µM; in assay [6] (setting [10]), above 100 µM.

`COc1ccc2c(c1)NC(=O)C2=Cc1cc2c([nH]1)CCCC2` [6-methoxy-3-(4,5,6,7-tetrahydro-1H-indol-2-ylmethylene)-1,3-dihydro-indol-2-one]: the IC50 in assay [2] and in assay [3] was above 50 µM in each case.

In the case of `COc1ccc(-c2ccc3c(c2)NC(=O)C3=Cc2cc3c([nH]2)CCCC3)cc1` [6-(4-methoxyphenyl)-3-(4,5,6,7-tetrahydro-1H-indol-2-ylmethylene)-1,3-dihydro-indol-2-one], the IC50 is above 100 µM in assay [1]; above 50 µM in assay [2]; above 50 µM in assay [3]; above 12.5 µM in assay [4]; above 50 µM in assay [5]; 94 µM in assay [6].

As for `O=C1Nc2cc(Cl)ccc2C1=Cc1cc2c([nH]1)CCCC2` [6-chloro-3-(4,5,6,7-tetrahydro-1H-indol-2-ylmethylene)-1,3-dihydro-indol-2-one], the IC50 in assay [1] was above 20 µM; in assay [6] (setting [10]) it was above 100 µM.

Take `CCOc1cccc(-c2ccc3c(c2)NC(=O)C3=Cc2cc3c([nH]2)CCCC3)c1` [6-(3-ethoxyphenyl)-3-(4,5,6,7-tetrahydro-1H-indol-2-ylmethylene)-1,3-dihydro-indol-2-one]: the IC50 was above 20 µM in assay [1]; above 50 µM in assay [2]; above 50 µM in assay [3]; above 25 µM in assay [4]; above 50 µM in assay [5] (setting [9]); above 100 µM in assay [6] (setting [10]).

`O=C1Nc2cc(-c3ccccc3)ccc2C1=Cc1cc2c([nH]1)CCCC2` [6-phenyl-3-(4,5,6,7-tetrahydro-1H-indol-2-ylmethylene)-1,3-dihydro-indol-2-one]: the IC50 in assay [1] was above 100 µM; in assay [2], above 50 µM; in assay [3], above 50 µM; in assay [4] it was above 12.5 µM; in assay [5] (setting [9]) it was above 50 µM; in assay [6] (setting [10]) it was 70.6 µM.

Consider `COc1ccc(-c2ccc3c(c2)NC(=O)C3=Cc2[nH]c3c(c2C)CCCC3)cc1` [6-(4-methoxyphenyl)-3-(3-methyl-4,5,6,7-tetrahydro-1H-indol-2-ylmethylene)-1,3-dihydro-indol-2-one], for which the IC50 in assay [1] is above 100 µM; in assay [2], above 50 µM; in assay [3] it was above 50 µM; in assay [4] it was above 50 µM; in assay [5] (setting [9]), above 50 µM; in assay [6] (setting [10]) it was above 100 µM.

Turning to `Cc1cc(Br)c2c(c1)C(=Cc1cc3c([nH]1)CCCC3)C(=O)N2` [7-bromo-5-methyl-3-(4,5,6,7-tetrahydro-1H-indol-2-ylmethylene)-1,3-dihydro-indol-2-one], the IC50 in assay [7] is above 2.5 µM; in assay [6] (setting [10]), 5.56 µM.

As for `O=C1Nc2cc(Br)ccc2C1=Cc1cc2c([nH]1)CCCC2` [6-bromo-3-(4,5,6,7-tetrahydro-1H-indol-2-ylmethylene)-1,3-dihydro-indol-2-one], the IC50 in assay [1] is above 20 µM; in assay [6] (setting [10]) it was above 100 µM.

Consider `O=C1Nc2cc(O)ccc2C1=Cc1cc2c([nH]1)CCCC2` [6-hydroxy-3-(4,5,6,7-tetrahydro-1H-indol-2-ylmethylene)-1,3-dihydro-indol-2-one], for which the IC50 was found to be 17.1 µM in assay [7]; 21 µM in assay [8]; 12.6 µM in assay [2]; 6.21 µM in assay [3]; 0.51 µM in assay [5] (setting [9]); 47.2 µM in assay [6] (setting [10]).
